Laboratory results as given in patent publication US10253002B2, “Compounds and methods of treating infections” (Neoculi Pty Ltd., priority 2013, dated 2019).
Values after ≈ are worked out from the molar mass of the structure shown.

Key:
VRE = experiment: Broth microdilution MIC, Example 7 (NCL812 and analogues); assay type: cell-based, Enterococcus spp.
In short: (§1)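 Turbidity read visually and then at 600 nm defined the MIC (μg/ml), comparing drug-containing wells with a growth-control well lacking antimicrobial. Testing followed the CLSI broth microdilution method, in duplicate, using two strains per organism group.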

Pseudomonas aeruginosa = experiment: as above; assay type: cell-based; details: P. aeruginosa; 24 hours; duplicate lines per compound
MRSA [1] = experiment: as above; assay type: cell-based, Staphylococcus aureus
In short: as §1

[2] = Release from Formulation B, Franz diffusion cells; assay type: physicochemical; details: absolute ethanol receptor, 32±1° C., up to 24 hours
Description: Franz diffusion cells were utilized to quantify the release rate of NCL 812 and NCL099 from its topical formulations. Five milliliters of absolute ethanol, which was chosen as the desired release medium, was loaded into the receptor chamber. Temperature of the receptor fluid was kept constant, at 32±1° C. using a water jacket. Acetyl cellulose membranes, with pore size of 0.45 μm (Pall Corporation) was selected and placed between donor and receptor chamber. Followed by that, a number of test samples (Formulation B) was loaded into the donor chamber. One milliliter of receptor fluid was collected at regular time intervals of 0.25, 0.50, 0.75, 1, 2, 3, 4, 5, 6, 7, 8 and 24 hours through the sampling port. One milliliter of fresh absolute ethanol was immediately returned to the receptor chamber. UV-HPLC was utilized to analyse the content of the receptor fluids attained.

Staphylococcus aureus = experiment: Mouse skin wound infection model, topical treatment; assay type: in vivo, mice; details: 14 treatments
Text: Preliminary studies prior to the conduct of the current study established a new method of skin infection arising from a detailed study of the models mentioned above. Briefly, study mice are anaesthetised, a patch of dorsal skin is clipped to reveal the skin and a circular area of skin is removed with a hand held punch, leaving a wound on the dorsum with a central cavity. The wound is infected with a known number of the challenge organism. Approximately four to six hours after infection, the wound is either treated topically with a vehicle formulation or an active formulation. The infected skin wound is retreated every 12 hours for a total of 14 treatments. Mice are humanely euthanased, the area of the original infected wound is dissected and removed and its bacterial content quantified by standard microbiologic tests. In this way, the change in bacterial concentration due to treatment with the active formulation can be readily determined by examining the reduction in bacterial burden compared with the vehicle control. Fresh cultures of bacteria (Staphylococcus aureus) were grown on Sheep Blood Agar at 37° C. for 16-18 hours. A few typical colonies were selected and suspended in 10 ml of Tryptic Soy Broth and incubated overnight in a shaking incubator (240 rpm) at 37° C. The overnight suspension was vortexed and diluted (1:100) in fresh Tryptic soy broth (100 μl [0.1 ml] in 9.9 ml broth). The fresh suspension was incubated for 3 hours in a shaking incubator (as above) in order to obtain mid-logarithmic phase bacteria. Bacteria were pelleted through centrifugation at 7,500 rpm for 10 mins. Broth supernatant was removed and bacteria suspended in 10 ml Phosphate Buffered Saline (PBS). These steps were repeated a further two times. The density of the suspension was checked by measuring absorbance at 600 nm, using a spectrophotometer with saline as a blank, to confirm the target density at a reading of approximately 0.100, consistent with a bacterial density of 2.5×10^7 CFU/ml. The suspension was placed into a rack placed into a lockable transport box with an ice brick to maintain refrigeration during transport, followed by storage in cool room upon arrival at the mouse skin infection laboratory. Final suspension was mixed thoroughly before inoculating the skin wounds created in mice. […] Eyes of each anaesthetised mouse were covered with veterinary eye lubricant in order to prevent corneal dehydration. Each mouse removed from induction chamber and placed onto surgical area, in front of individual aesthetic nose cone. While under anaesthesia each mouse was monitored for assessment of depth of anaesthesia (response to pain, blink reflex, skeletal muscle tone) and respiratory and cardiac function. Back skin hair was shaved from surgical area with mechanical clippers. […] Once the iodine solution was dry, a subcutaneous injection of the nonsteroidal anti-inflammatory agent meloxicam was administered. Dorsal skin was pinched gently to allow creation of a circular full-thickness wound using ear punch/biopsy punch. […] Once the bacterial suspension was dry, mice were placed into individual recovery boxes labelled with the mouse number. The time of inoculation was recorded. Initial body weights of each mouse were recorded on the appropriate score sheet. Mice recovered to full consciousness within 5 minutes. Recovered mice were returned to individual housing and monitored hourly for post-surgical or anaesthetic complications. […] Each ointment container was weighted prior to administration and the weight recorded. Each mouse was carefully restrained. […] The weight of the ointment container post-administration was recorded. […] At the end of the 7 day skin wound assessment period, all test mice were euthanased prior to wound collection for post mortem examination. The skin wound was dissected from the dorsum of each mouse. The sample was placed in a sample tube and weighed before 1 ml PBS and sterile tissue homogenisation beads were added. […]

[3] = Bioassay ranking of the analogues tested; details: M + R (MRSA and VRE combined)
Escherichia coli = experiment: Broth microdilution MIC, Example 7 (NCL812 and analogues); assay type: cell-based; details: E. coli; 24 hours; duplicate lines per compound
S. aureus ATCC 29213 [4] = details: Staphylococcus aureus ATCC 29213; CLSI-established; cited from earlier work
S. aureus ATCC 29213 [5] = experiment: MIC testing (CLSI M07-A8, MHB II), Example 2; assay type: cell-based; details: ATCC29213, Staphylococcus aureus ATCC 29213
Description: The medium employed for the MIC assay was Mueller Hinton II Broth (MHB II-Becton Dickinson, Sparks, Md.; Cat No 212322; Lot 9044411). S. aureus ATCC 29213 served as the quality control strain, and linezolid was utilized as the quality control antibiotic to validate the assay.

[6] = tested on: protein synthesis in S. aureus ATCC 29213; experiment: Macromolecular synthesis assay: protein synthesis ([3H] leucine); assay type: cell-based, Staphylococcus aureus; details: 8 fold the MIC (2 μg/mL)
Description: Cells were grown at 35° C. overnight on Trypticase Soy agar. A colony from the plate was used to inoculate 10 ml of Mueller Hinton broth II (MHBII), and the culture was grown to early exponential growth phase (OD600==0.2 to 0.3) while incubating in a shaker at 35° C. and 200 rpm.
When cells reached early exponential phase, 100 μL of culture was added to triplicate wells containing various concentrations of test compound or control antibiotics (5 μL) at 20× the final concentration in 100% DMSO. A 5% DMSO treated culture served as the “no drug” control for all experiments. Cells were added in MHBII at 105% to account for the volume of drug added to each reaction or in M9 minimal medium for protein synthesis reactions. Following 15 min incubation at room temperature, either [^3H] thymidine (DNA synthesis), [^3H] uridine (RNA synthesis) or [^3H] leucine (protein synthesis) was added at 0.5-1.0 μCi per reaction, depending on the experiment. Reactions were allowed to proceed at room temperature for 15-30 min and then stopped by adding 12 μL of cold 5% trichloroacetic acid (TCA) or 5% TCA/2% casamino acids (protein synthesis only). […] After washing three times with 5 ml of cold 5% TCA, the filters were rinsed two times with 5 mL 100% ethanol, allowed to dry, and then counted using a Beckman LS3801 liquid scintillation counter.

MRSA [7] = details: within an hour of exposure to a concentration equivalent to the Cmax; McKay et al. (2009); cited from earlier work

Compound: CC(C)(C)c1ccc(C=NNC(=N)NN=Cc2ccc(C(C)(C)C)cc2)cc1.Cl [NCL099]
- activity against VRE among analogues (VRE; MIC testing, two VRE strains): greatest activity
- MIC (μg/ml) at 24 hours, VRE 1 (VRE; VRE 1, 24 hours, duplicate lines per compound): 8 µg/mL
- MIC (μg/ml) at 24 hours, VRE 2 (VRE; VRE 2, 24 hours, duplicate lines per compound): 8 µg/mL
- VRE (VRE; bioassay ranking, VRE): 8 µg/mL
- MIC (μg/ml) at 24 hours, P. aeruginosa (Pseudomonas aeruginosa): >128 µg/mL
- activity against MRSA among analogues (MRSA [1]; MIC testing, two MRSA strains): greatest activity
- MIC (μg/ml) at 24 hours, MRSA 1 (MRSA [1]; MRSA 1, 24 hours, duplicate lines per compound): 8 µg/mL
- MIC (μg/ml) at 24 hours, MRSA 2 (MRSA [1]; MRSA 2, 24 hours, duplicate lines per compound): 4 µg/mL
- MRSA (MRSA [1]; bioassay ranking, MRSA): 6 µg/mL
- release profile from Formulation B [2]: acceptable release profile
- mean colony count per g of tissue, log10 (Staphylococcus aureus; mice, Formulation B 20 mg/g topically every 12 hours, vehicle 6.77): 3.12 log10
- mean colony count per g of tissue (Staphylococcus aureus; mice, Formulation B 20 mg/g topically every 12 hours, vehicle 5,888,436): 1,318
- % reduction (of colony forming units per gram of tissue versus vehicle) (Staphylococcus aureus; mouse skin wound infected with Staphylococcus aureus, topical ointment (Formulation B, 20 mg/g) every 12 hours, end of 7 day period, relative to vehicle group): 99.98%
- Log10 (CFU/g): colony forming units per gram of tissue (Staphylococcus aureus; mouse skin wound infected with Staphylococcus aureus, topical ointment (Formulation B, 20 mg/g) every 12 hours, wound tissue at end of 7 day period, group mean): 3.12 Log10 (CFU/g)
- M + R [3]: 7 µg/mL
- MIC (μg/ml) at 24 hours, E. coli (Escherichia coli): >128 µg/mL

Compound: CC(=O)NC[C@H]1CN(c2ccc(N3CCOCC3)c(F)c2)C(=O)O1 [Linezolid]
- Quality control range for linezolid (MIC) (S. aureus ATCC 29213 [4]): 1 to 4 µg/mL
- MIC (S. aureus ATCC 29213 [5]): 4 µg/mL (≈ 11.9 µM)
- inhibition of protein synthesis [6]: approximately 61%

Compound: CN[C@H](CC(C)C)C(=O)N[C@H]1C(=O)N[C@@H](CC(N)=O)C(=O)N[C@H]2C(=O)N[C@H]3C(=O)N[C@H](C(=O)N[C@H](C(=O)O)c4cc(O)cc(O)c4-c4cc3ccc4O)[C@H](O[C@H]3C[C@](C)(N)[C@@H](O)[C@H](C)O3)c3ccc(c(Cl)c3)Oc3cc2cc(c3O[C@@H]2O[C@H](CO)[C@@H](O)[C@H](O)[C@H]2O[C@H]2C[C@](C)(NCc3ccc(-c4ccc(Cl)cc4)cc3)[C@@H](O)[C@H](C)O2)Oc2ccc(cc2Cl)[C@H]1O [oritavancin]
- reduction in viable count (MRSA [7]): 3 log10
